Laboratory results taken from patent US20030100769A1, “Cyclic amidine compounds” (priority 2000, published 2003).

Columns and labels:
[1] = molecular target: T1, α4β2 subtype of nicotinic acetylcholine receptors (Rattus norvegicus, UniProt P09483+P12390); experiment: Binding assay at α4β2 subtype of nicotinic acetylcholine receptors ([3H]-cytisine, rat brain membrane)
T1 construct: examined using rat brain membrane obtained from whole homogenized brain; from tissue; host or cells: rat whole brain membranes (Fischer-344 male rats)
From the text: (§1) The methods for evaluating the binding capabilities of the compounds at nicotinic acetylcholine receptors are different by subtypes of receptors. The binding capabilities of the compounds at α4β2 nicotinic acetylcholine receptors are examined using rat brain membrane obtained from whole homogenized brain, and determining the inhibiting rate of the compounds against [^3H]-cytisine binding to said brain membrane. Furthermore, the binding capabilities of the compounds at α1β1γδ nicotinic acetylcholine receptors are examined using homogenized rat muscle, and determining the inhibiting rate of the compounds against [^3H]-α-bungarotoxin binding to said muscle homogenate.
Binding Assays at α4β2 Subtype of Nicotinic Acetylcholine Receptors
(1) Preparation of Rat Brain Membrane Containing α4β2 Subtype of Nicotinic Acetylcholine Receptors
Rats were housed in the breeding cage controlled of the room temperature at 23±1° C., and the humidity of 55±5% for 1 to 4 weeks. Rats (3 to 4 rats per a cage) were housed with lights on for 12 hours daily (from 7:00 to 19:00), and allowed free access to food and water.
Preparation of rat brain membrane containing α4β2 subtype of nicotinic acetylcholine receptors was performed as follow. That is, rat brains were isolated just after sacrificed by decapitation, washed with ice-cooled saline solution and then frozen at −80° C. with liquid nitrogen and stored till using. After thawing the frozen brain, the brain was homogenized in 10 volumes of ice-cooled buffer solution (50 mM of Tris-HCl, 120 mM of NaCl, 5 mM of KCl, 1 mM of MgCl2, 2 mM of CaCl2; pH 7.4; 4° C.) using homogenizer (HG30, Hitachi Kohki Ltd.) for 30 seconds, and the homogenate were centrifuged under 1,000×G for 10 minutes at 4° C. The resulting supernatant was separated and the pellet was homogenized again with half volume of aforementioned prior buffer solution and centrifuged under the same conditions. Combined supernatant was further centrifuged under 40,000×G for 20 minutes at 4° C. The pellet was suspended in buffer solution and used for binding assays at receptors.
(2) Experiments of α4β2 Subtype of Nicotinic Acetylcholine Receptors Binding
Suspensions of membrane pellets containing 400-600 μg of protein were added to test tubes containing test compounds and [^3H]-cytisine (2 nM) in a final volume of 200 μl and incubated for 75 minutes in ice-cooled bath. The samples were isolated by vacuum filtration onto Whatman GF/B filters, which were prerinsed with 0.5% polyethylenimine just prior to sample filtration, using Brandel multi manifold cell harvester. The filters were rapidly washed with buffer solution (3×1 ml). The filters were counted in 3 ml of clearsol I (Nacalai Tesque Inc.).
The analyses of the experimental results were conducted by using the Accufit Competition Program (Beckman Ltd.).

[2] = molecular target: α1β1γδ subtype of nicotinic acetylcholine receptors (Rattus norvegicus, UniProt P18916+P25108+P25109+P25110); experiment: biochemical; type: binding; details: for remaining activity at 100 µM: read-out: control % of [3H]-α-Bgt binding at 100 μM of test compound; for remaining activity at 1000 µM: read-out: control % of [3H]-α-Bgt binding at 1,000 μM of test compound
From the text: as §1
Binding Assays at α1β1γδ Subtype of Nicotinic Acetylcholine Receptors
The affinity of the compounds of the present invention to α1β1γδ subtype of nicotinic acetylcholine receptors was measured by the following method, which was modified method described by Garcha H. S., Thomas P., Spivak C.
(1) Preparation of Rat Skeletal Muscles Containing α1β1γδ Subtype of Nicotinic Acetylcholine Receptors
The substantially same animals described in the Biological Experiment 1 were used.
The isolation of α1β1γδ subtype of nicotinic acetylcholine receptors was performed as follow. That is, rat posterior skeletal muscles were isolated just after sacrificed by decapitation, washed with ice-cooled saline solution and then frozen at −80° C. with liquid nitrogen and stored till using. After thawing the frozen muscles, tissue was homogenized ([…]) with buffer solution [2.5 mM of sodium phosphate buffer (pH:7.2), 90 mM of NaCl, 2 mM of KCl, 1 mM of EDTA, 2 mM of benzamidine, 0.1 mM of benzethonium chloride, 0.1 mM of PMSF, 0.01% of sodium azide] in Waring blender (Waring blender 34BL97; WARING PRODUCTS DIVISION DYNAMICS CORPORATION OF AMERICA) for 60 seconds. The homogenate were centrifuged under 20,000×G for 60 minutes at 4° C. The supernatant was separated and the resulting pellet was added to the same buffer (1.5 ml/g wet weight), and homogenized under the same conditions. Triton X100 (2% w/v) was added and the mixture was stirred for 3 hours at 4° C. The centrifugation at 100,000×G for 60 minutes at 4° C. yielded the rat muscle extract as supernatant. This was stored at 4° C. for up to 4 weeks, and used for binding assays at receptors.
(2) Experiments of α1β1γδ Subtype of Nicotinic Acetylcholine Receptors Binding
Receptors binding experiments were performed as follow. That is, the extract of rat muscle containing 600-900 μg of protein was added to test tubes containing test compounds and incubated for 15 minutes at 37° C. Then, to this mixture was added 1 nM of [^3H]-α-bungarotoxin (α-Bgt) and further incubated for 2 hours. The samples were isolated by vacuum filtration onto Whatman GF/B filters, which were prerinsed with 0.5% polyethylenimine just prior to sample filtration, using Brandel multi manifold cell harvester. The filters were rapidly rinsed with washing solution (10 mM of KH2PO4, 150 mM of NaCl, pH 7.2, room temperature) (5×1 ml). The filters were counted in 3 ml of clearsol I (Nacalai Tesque Inc.). The determination of nonspecific binding was incubated in the presence of 1 μM α-Bgt. […] In the receptor binding experiments, said buffer solution was added for adjusting the final concentration of BSA to be 0.05%.
The analyses of the experimental results were conducted by the same way as described in the Biological Experiment 1.

α1β1γδ subtype of nicotinic acetylcholine receptors, sequence (P25109 24-501): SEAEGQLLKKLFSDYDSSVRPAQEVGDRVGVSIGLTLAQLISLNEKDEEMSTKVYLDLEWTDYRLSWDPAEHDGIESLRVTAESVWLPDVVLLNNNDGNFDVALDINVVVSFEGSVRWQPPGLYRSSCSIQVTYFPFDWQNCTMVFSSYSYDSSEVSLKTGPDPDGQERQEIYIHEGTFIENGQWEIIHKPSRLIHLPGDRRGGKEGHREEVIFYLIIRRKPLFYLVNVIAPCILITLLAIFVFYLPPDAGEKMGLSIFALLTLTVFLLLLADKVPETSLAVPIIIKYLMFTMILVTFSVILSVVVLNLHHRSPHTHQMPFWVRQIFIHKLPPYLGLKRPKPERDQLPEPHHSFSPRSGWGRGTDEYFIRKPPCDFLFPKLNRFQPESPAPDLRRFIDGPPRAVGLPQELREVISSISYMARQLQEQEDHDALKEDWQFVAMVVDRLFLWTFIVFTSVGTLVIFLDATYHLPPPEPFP
α1β1γδ subtype of nicotinic acetylcholine receptors, sequence (P25110 22-517): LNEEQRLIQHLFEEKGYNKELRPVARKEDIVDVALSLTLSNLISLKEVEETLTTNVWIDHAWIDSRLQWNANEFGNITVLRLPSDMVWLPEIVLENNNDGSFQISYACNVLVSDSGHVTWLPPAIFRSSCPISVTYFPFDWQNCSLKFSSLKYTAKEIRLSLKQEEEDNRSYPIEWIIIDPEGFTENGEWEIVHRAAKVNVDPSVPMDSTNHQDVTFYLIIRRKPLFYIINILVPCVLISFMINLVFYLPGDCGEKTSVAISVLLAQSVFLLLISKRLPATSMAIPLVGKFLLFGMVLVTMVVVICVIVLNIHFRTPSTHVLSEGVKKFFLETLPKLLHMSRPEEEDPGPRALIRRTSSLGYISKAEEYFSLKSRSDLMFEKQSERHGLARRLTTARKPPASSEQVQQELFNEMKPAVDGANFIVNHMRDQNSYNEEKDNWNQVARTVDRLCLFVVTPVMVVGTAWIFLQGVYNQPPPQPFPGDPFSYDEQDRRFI
α1β1γδ subtype of nicotinic acetylcholine receptors, sequence (P25108 21-457): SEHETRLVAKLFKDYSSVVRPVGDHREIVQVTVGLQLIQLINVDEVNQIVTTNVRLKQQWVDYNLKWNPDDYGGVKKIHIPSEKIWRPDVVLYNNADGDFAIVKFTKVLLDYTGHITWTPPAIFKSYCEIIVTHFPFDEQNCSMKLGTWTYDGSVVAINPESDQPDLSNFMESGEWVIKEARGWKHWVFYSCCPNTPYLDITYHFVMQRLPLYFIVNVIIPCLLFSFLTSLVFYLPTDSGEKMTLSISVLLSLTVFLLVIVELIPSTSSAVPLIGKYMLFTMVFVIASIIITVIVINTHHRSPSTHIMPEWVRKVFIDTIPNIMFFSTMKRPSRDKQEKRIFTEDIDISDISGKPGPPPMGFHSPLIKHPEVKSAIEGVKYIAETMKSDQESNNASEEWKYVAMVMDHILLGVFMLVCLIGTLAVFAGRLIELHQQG
T1 sequence (P09483 31-630): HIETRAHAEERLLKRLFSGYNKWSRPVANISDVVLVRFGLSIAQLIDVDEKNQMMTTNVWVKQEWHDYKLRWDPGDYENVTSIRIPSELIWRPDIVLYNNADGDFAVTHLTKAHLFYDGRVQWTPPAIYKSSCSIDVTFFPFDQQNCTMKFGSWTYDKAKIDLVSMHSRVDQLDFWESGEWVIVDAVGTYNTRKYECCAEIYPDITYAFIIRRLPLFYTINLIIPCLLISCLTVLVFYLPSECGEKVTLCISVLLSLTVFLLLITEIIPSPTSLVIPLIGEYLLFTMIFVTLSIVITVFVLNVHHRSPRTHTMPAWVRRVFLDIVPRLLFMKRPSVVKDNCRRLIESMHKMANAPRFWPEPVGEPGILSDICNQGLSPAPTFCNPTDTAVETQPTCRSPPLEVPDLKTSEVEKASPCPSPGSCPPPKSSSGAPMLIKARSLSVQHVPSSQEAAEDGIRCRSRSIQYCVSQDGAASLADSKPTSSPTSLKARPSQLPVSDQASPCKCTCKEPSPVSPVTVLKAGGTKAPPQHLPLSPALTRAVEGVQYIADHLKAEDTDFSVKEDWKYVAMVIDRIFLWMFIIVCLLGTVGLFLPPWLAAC
T1 sequence (P12390 25-500): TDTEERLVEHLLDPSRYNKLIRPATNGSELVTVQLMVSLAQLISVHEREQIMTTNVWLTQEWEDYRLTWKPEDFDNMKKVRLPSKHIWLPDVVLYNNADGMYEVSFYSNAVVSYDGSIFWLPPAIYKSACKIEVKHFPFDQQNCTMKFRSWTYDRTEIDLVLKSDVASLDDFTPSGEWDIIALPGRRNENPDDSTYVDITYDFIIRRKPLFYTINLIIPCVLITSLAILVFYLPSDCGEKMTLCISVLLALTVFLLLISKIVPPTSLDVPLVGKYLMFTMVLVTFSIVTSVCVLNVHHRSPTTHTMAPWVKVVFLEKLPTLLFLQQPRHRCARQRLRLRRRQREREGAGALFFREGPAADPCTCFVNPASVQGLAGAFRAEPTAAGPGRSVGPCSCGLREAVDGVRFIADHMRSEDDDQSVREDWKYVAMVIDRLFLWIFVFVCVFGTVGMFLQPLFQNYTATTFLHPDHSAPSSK

Clc1ccc(C2=NCCCN2)cn1 [Compound 2, 2-(6-chloro-3-pyridyl)-1,4,5,6-tetrahydropyrimidine]
Ki [1]: 13 nM | remaining activity at 100 µM [2]: 34% | remaining activity at 1000 µM [2]: 6%

CN1CCN=C1c1ccc(Cl)nc1 [Compound 3, 2-(6-chloro-3-pyridyl)-1-methyl-2-imidazoline]
Ki [1]: 45 nM | remaining activity at 100 µM [2]: 34% | remaining activity at 1000 µM [2]: 5%

Clc1ncc(C2=NCCCN2)s1 [Compound 22, 2-(2-chloro-5-thiazolyl)-1,4,5,6-tetrahydropyrimidine]
Ki [1]: 429 nM | remaining activity at 100 µM [2]: 23% | remaining activity at 1000 µM [2]: -4%
